# Test results published in ChEMBL document CHEMBL1152639, “Design, synthesis and nootropic activity of new analogues of sunifiram and sapunifiram, two potent cognition-enhancers” (Bioorg Med Chem, 2009).
# Activity calls are given as the source filed them. No cut-off for these calls is given here.
# Tests used:
# Mus musculus [1] = experiment: Effect on spontaneous motility in ip dosed mouse by hole-board test; assay type: functional, organism-based
# Mus musculus [2] = experiment: Antiamnesic activity against scopolamine-induced amnesia in ip dosed mouse by passive-avoidance test; assay type: functional; conditions: read-out: MED
# Mus musculus [3] = experiment: Toxicity in ip dosed mouse assessed as change in gross behavior; assay type: organism-based; conditions: in vivo
# Mus musculus [4] = experiment: Effect on inspection activity in ip dosed mouse by hole-board test; assay type: functional, organism-based
# Mus musculus [5] = experiment: Procognitive effect in ip dosed mouse assessed as inhibition of memory deficit by passive-avoidance test; assay type: functional; conditions: read-out: MED
# Mus musculus [6] = experiment: Toxicity in ip dosed mouse assessed as change motor coordination by rota rod test; assay type: organism-based; conditions: in vivo
# Mus musculus [7] = experiment: Ratio of MED for drug to MED for piracetam against scopolamine-induced amnesia in ip dosed mouse by passive-avoidance test; assay type: functional
Compound,minimal effective dose (Mus musculus [2]) [mg/kg],Ratio (Mus musculus [7]),also measured
CCC(=O)N1CCN(C(=O)c2ccccc2)CC1 [SUNIFIRAM],0.001,30,Activity (Mus musculus [1]): inactive; Activity (Mus musculus [3]): Non-toxic; Activity (Mus musculus [4]): inactive; minimal effective dose (Mus musculus [5]): 0.01 mg/kg; Activity (Mus musculus [6]): Non-toxic
CC(=O)N1CCN(S(=O)(=O)c2ccc(F)cc2)CC1,0.01,30,–
CCCS(=O)(=O)N1CCCN(C(=O)CC)CC1,> 10,30,–
CCC(=O)NC1CCN(C(C)=O)CC1,10,–,–
CCCS(=O)(=O)N1CCN(C(=O)CC)CC1,1,30,–
CC(=O)N1CCN(C(=O)c2ccccc2)C1,1,–,–
CCC(=O)N1CCN(S(=O)(=O)c2ccc(F)cc2)C1,1,–,–
CCC(=O)N1CCN(C(=O)Cc2ccccc2)CC1,1,–,–
CCCS(=O)(=O)N1CCN(C(=O)CC)C1,> 10,–,–
CCC(=O)N1CCN(C(=O)Oc2ccccc2)CC1,10,–,–
CCC(=O)N1CCC(NC(C)=O)CC1,> 10,–,–
CC(=O)N1CCCN(C(=O)Cc2ccccc2)CC1,0.01,30,minimal effective dose (Mus musculus [5]): 1 mg/kg
CC(=O)N1CCCN(S(=O)(=O)c2ccc(F)cc2)CC1,1,30,minimal effective dose (Mus musculus [5]): 10 mg/kg
CNC(=O)C1CCN(S(=O)(=O)c2ccc(F)cc2)CC1,0.1,–,minimal effective dose (Mus musculus [5]): 1 mg/kg
CC(=O)N1CCN(S(=O)(=O)c2ccc(F)cc2)C1,1,–,–
CC(=O)NC(=O)C1CCN(S(=O)(=O)c2ccc(F)cc2)CC1,1,–,–
CCCS(=O)(=O)N1CCCN(C(C)=O)C1,1,–,–
CC(=O)NC1CCN(S(=O)(=O)c2ccc(F)cc2)CC1 [SAPUNIFIRAM],0.01,–,Activity (Mus musculus [1]): inactive; Activity (Mus musculus [3]): Non-toxic; Activity (Mus musculus [4]): inactive; minimal effective dose (Mus musculus [5]): 0.1 mg/kg; Activity (Mus musculus [6]): Non-toxic
CC(=O)N1CCCN(C(=O)c2ccccc2)C1,1,–,–

Compound,minimal effective dose (Mus musculus [2]) [mg/kg],Ratio (Mus musculus [7]),also measured
CCCS(=O)(=O)N1CCCN(C(C)=O)CC1,> 10,30,–
CCC(=O)N1CCCN(S(=O)(=O)c2ccc(F)cc2)C1,1,–,–
CCC(=O)N1CCCN(S(=O)(=O)c2ccc(F)cc2)CC1,1,30,minimal effective dose (Mus musculus [5]): 10 mg/kg
CCC(=O)N1CCN(C(=O)c2ccccc2)C1,1,–,–
CCC(=O)N1CCN(C(=O)Nc2ccccc2)CC1,> 10,–,–
CCCS(=O)(=O)N1CCCN(C(=O)CC)C1,> 10,–,–
CC(=O)N1CCN(C(=O)c2ccccc2)CC1,10,30,–
CCC(=O)N1CCN(C(C)=O)CC1,10,–,–
CC(=O)N1CCCN(C(=O)c2ccccc2)CC1,0.01,30,minimal effective dose (Mus musculus [5]): 1 mg/kg
CCC(=O)N1CCCN(C(=O)c2ccccc2)CC1,0.1,30,minimal effective dose (Mus musculus [5]): 1 mg/kg
NC(=O)CN1CCCC1=O [PIRACETAM],30,–,Activity (Mus musculus [1]): inactive; Activity (Mus musculus [3]): Non-toxic; Activity (Mus musculus [4]): inactive; Activity (Mus musculus [6]): Non-toxic
CCNC(=O)C1CCN(S(=O)(=O)c2ccc(F)cc2)CC1,1,–,–
CCCS(=O)(=O)N1CCN(C(C)=O)CC1,0.1,30,–
CCC(=O)N1CCCN(C(=O)c2ccccc2)C1,1,–,–
CCCS(=O)(=O)N1CCN(C(C)=O)C1,10,–,–
CC(=O)N1CCCN(S(=O)(=O)c2ccc(F)cc2)C1,1,–,–
CCC(=O)N1CCN(C(=O)CC)CC1,> 10,–,–
CCC(=O)N1CCN(S(=O)(=O)c2ccc(F)cc2)CC1,0.01,30,–
